≈ marks a conversion by molar mass, not a printed value.
Tests used:
Vero [1] = experiment: Minimum inhibitory concentration (MIC) required to reduce virus-induced cytopathogenicity by 50% against Sindbis virus in African green monkey kidney (Vero B)cells; format: functional; conditions: Chlorocebus sabaeus
WI-38 [2] = experiment: Minimum inhibitory concentration (MIC) required to reduce virus-induced cytopathogenicity by 50% against Rhinovirus 9 in human diploid (WI-38)cells; format: functional; conditions: Homo sapiens; read-out: MIC
[3] = Minimum cytotoxic concentration (MCC) required to cause a microscopically detectable alteration of host cell morphology, when incubated with PRK cells; format: functional; conditions: Oryctolagus cuniculus
HeLa [4] = experiment: Minimum inhibitory concentration (MIC) required to reduce virus-induced cytopathogenicity by 50% against Coxsackie virus B4 in HeLa cells; format: functional; conditions: Homo sapiens
Vero [5] = experiment: Minimum inhibitory concentration (MIC) required to reduce virus-induced cytopathogenicity by 50% against Coxsackie virus B4 in African green monkey kidney (Vero B)cells; format: functional, Chlorocebus sabaeus; conditions: Chlorocebus sabaeus; read-out: MIC
WI-38 [6] = experiment: Minimum inhibitory concentration (MIC) required to reduce virus-induced cytopathogenicity by 50% against Rhinovirus-1A in human diploid (WI-38)cells; format: functional
Monkey = experiment: (§1) Minimum inhibitory concentration (MIC) required to reduce virus-induced cytopathogenicity by 50% against forest virus in African green monkey kidney (Vero B)cells; format: functional, Chlorocebus sabaeus; conditions: Cercopithecidae
Vero [7] = experiment: Minimum inhibitory concentration (MIC) required to reduce virus-induced cytopathogenicity by 50% against Parainfluenza virus-3 in African green monkey kidney (Vero B)cells; format: functional, Chlorocebus sabaeus
WI-38 [8] = experiment: Minimum cytotoxic concentration (MCC) required to cause a microscopically detectable alteration of host cell morphology, when incubated with WI-38 cells; format: functional; conditions: Homo sapiens
Oryctolagus cuniculus [9] = species on record: Oryctolagus cuniculus; experiment: Minimum inhibitory concentration (MIC) required to reduce virus-induced cytopathogenicity by 50% against G strain of Herpes simplex virus-2 in primary rabbit kidney cells; format: functional
Oryctolagus cuniculus [10] = species on record: Oryctolagus cuniculus; experiment: Minimum inhibitory concentration (MIC) required to reduce virus-induced cytopathogenicity by 50% against KOS strain of Herpes simplex virus-1 in primary rabbit kidney cells; format: functional
Vero [11] = experiment: Minimum cytotoxic concentration (MCC) required to cause a microscopically detectable alteration of host cell morphology, when incubated with Vero B cells; format: functional; conditions: Chlorocebus sabaeus
HeLa [12] = experiment: Minimum cytotoxic concentration (MCC) required to cause a microscopically detectable alteration of host cell morphology, when incubated with HeLa cells; format: functional; conditions: Homo sapiens
Vero [13] = experiment: Minimum inhibitory concentration (MIC) required to reduce virus-induced cytopathogenicity by 50% against Reo virus-1 in African green monkey kidney (Vero B)cells; format: functional, Chlorocebus sabaeus; conditions: Chlorocebus sabaeus; read-out: MIC
[14] = Inhibitory effect on 196 strain of Herper simplex virus-2 yield, in primary rabbit kidney cell culture 400 ug/mL concentration after 48 hours.; format: functional, Oryctolagus cuniculus
Vero [15] = experiment: as §1; format: functional; conditions: Chlorocebus sabaeus
[16] = Inhibitory effect on 196 strain of Herper simplex virus-2 yield, in primary rabbit kidney cell culture 40 ug/mL concentration after 48 hours.; format: functional, Oryctolagus cuniculus
Mus musculus [17] = species on record: Mus musculus; experiment: Number of mice normal, without lesion after HSV-2 infection observed from day 0 to day 3; format: functional
WI-38 (Homo sapiens) = experiment: Minimum inhibitory concentration (MIC) required to reduce virus-induced cytopathogenicity by 50% against Rhinovirus-1A in human diploid (WI-38)cells
[18] = Inhibitory effect on KOS strain of Herper simplex virus-1 yield, in primary rabbit kidney cell culture at 100 ug/mL concentration after 24 hours; format: functional, Oryctolagus cuniculus
[19] = Inhibitory effect on 196 strain of Herper simplex virus-2 yield, in primary rabbit kidney cell culture 40 ug/mL concentration after 24 hours.; format: functional, Oryctolagus cuniculus
Mus musculus [20] = species on record: Mus musculus; experiment: Survival rate at 20th day expressed as number of mice survived infected with HSV-2; out of 10; format: functional
Mus musculus [21] = species on record: Mus musculus; experiment: Number of mice normal, without lesion after HSV-1 infection observed from day 12 to day 20; format: functional
[22] = Inhibitory effect on KOS strain of Herper simplex virus-1 yield, in primary rabbit kidney cell culture 400 ug/mL concentration after 48 hours.; format: functional, Oryctolagus cuniculus
Mus musculus [23] = species on record: Mus musculus; experiment: Number of mice normal, without lesion after HSV-2 infection observed from day 12 to day 20; format: functional
[24] = Inhibitory effect on 196 strain of Herper simplex virus-2 yield, in primary rabbit kidney cell culture 100 ug/mL concentration after 48 hours.; format: functional, Oryctolagus cuniculus
Oryctolagus cuniculus [25] = species on record: Oryctolagus cuniculus; experiment: Minimum inhibitory concentration (MIC) required to reduce virus-induced cytopathogenicity by 50% against Vaccinia virus in primary rabbit kidney cells; format: functional
[26] = Inhibitory effect on KOS strain of Herper simplex virus-1 yield, in primary rabbit kidney cell culture 100 ug/mL concentration after 48 hours.; format: functional, Oryctolagus cuniculus
Mus musculus [27] = species on record: Mus musculus; experiment: Survival rate at 20th day expressed as number of mice survived infected with HSV-1; out of 10; format: functional
[28] = Inhibitory effect on 196 strain of Herper simplex virus-2 yield, in primary rabbit kidney cell culture 100 ug/mL concentration after 24 hours.; format: functional, Oryctolagus cuniculus
[29] = Inhibitory effect on KOS strain of Herper simplex virus-1 yield, in primary rabbit kidney cell culture 40 ug/mL concentration after 48 hours.; format: functional, Oryctolagus cuniculus
Mus musculus [30] = species on record: Mus musculus; experiment: Number of mice dead after HSV-1 infection observed from day 12 to day 20; format: functional
[31] = Inhibitory effect on 196 strain of Herper simplex virus-2 yield, in primary rabbit kidney cell culture 400 ug/mL concentration after 24 hours.; format: functional, Oryctolagus cuniculus
Mus musculus [32] = species on record: Mus musculus; experiment: Number of mice normal, without lesion after HSV-1 infection observed from day 0 to day 3; format: functional
Mus musculus [33] = species on record: Mus musculus; experiment: Number of mice dead after HSV-2 infection observed from day 12 to day 20; format: functional
[34] = Inhibitory effect on KOS strain of Herper simplex virus-1 yield, in primary rabbit kidney cell culture at 40 ug/mL concentration after 24 hours; format: functional, Oryctolagus cuniculus
[35] = Inhibitory effect on KOS strain of Herper simplex virus-1 yield, in primary rabbit kidney cell culture at 400 ug/mL concentration after 24 hours; format: functional, Oryctolagus cuniculus

Compound: Cc1cn([C@@H]2O[C@H](CO)[C@H](O)[C@@H]2O)c(=O)[nH]c1=O
- MIC (Vero [1]): > 400 µg/mL
- MIC (WI-38 [2]): > 150 µg/mL
- MCC [3]: > 400 µg/mL
- MIC (HeLa [4]): > 400 µg/mL
- MIC (Vero [5]): > 400 µg/mL
- MIC (WI-38 [6]): > 400 µg/mL
- MIC (Monkey): > 400 µg/mL
- MIC (Vero [7]; Chlorocebus sabaeus, read-out: MIC): > 400 µg/mL
- MCC (WI-38 [8]): > 400 µg/mL
- MIC (Oryctolagus cuniculus [9]; Oryctolagus cuniculus, read-out: MIC): > 400 µg/mL
- MIC (Oryctolagus cuniculus [10]): > 400 µg/mL
- MCC (Vero [11]): > 400 µg/mL
- MCC (HeLa [12]): > 400 µg/mL
- MIC (Vero [13]): > 400 µg/mL

Compound: Nc1ncnc2c1ncn2[C@@H]1O[C@H](CO)[C@H](O)[C@@H]1O (stereo in doubt; 8)
- Virus yield [14]: 5.1 log pfu ml-1
- MIC (Vero [1]): > 400 µg/mL
- MIC (WI-38 [2]): > 200 µg/mL
- MIC (Vero [15]): > 400 µg/mL
- MCC [3]: > 400 µg/mL
- Virus yield [16]: 5.5 log pfu ml-1
- No. of mice (Mus musculus [17]): 10
- MIC (WI-38 (Homo sapiens)): > 200 µg/mL
- Virus yield [18]: 6.8 log pfu ml-1
- Virus yield [19]: 5.4 log pfu ml-1
- Survival rate (Mus musculus [20]): 3
- No. of mice (Mus musculus [21]): 4
- Virus yield [22]: 6.6 log pfu ml-1
- MIC (HeLa [4]): > 400 µg/mL
- No. of mice (Mus musculus [23]): 3
- MIC (Vero [5]): 70 µg/mL (≈ 262 µM)
- Virus yield [24]: 5.3 log pfu ml-1
- MIC (Vero [7]): 70 µg/mL (≈ 262 µM)
- MCC (WI-38 [8]): > 400 µg/mL
- MIC (Oryctolagus cuniculus [25]): 70 µg/mL (≈ 262 µM)
- Virus yield [26]: 6.7 log pfu ml-1
- Survival rate (Mus musculus [27]): 4
- Virus yield [28]: 5.1 log pfu ml-1
- MIC (Oryctolagus cuniculus [9]): 100 µg/mL (≈ 374 µM)
- Virus yield [29]: 7 log pfu ml-1
- No. of mice (Mus musculus [30]): 6
- MIC (Oryctolagus cuniculus [10]): > 400 µg/mL
- Virus yield [31]: 3.8 log pfu ml-1
- No. of mice (Mus musculus [32]): 10
- No. of mice (Mus musculus [33]): 7
- Virus yield [34]: 6.8 log pfu ml-1
- MCC (Vero [11]): > 400 µg/mL
- MCC (HeLa [12]): > 400 µg/mL
- Virus yield [35]: 6.2 log pfu ml-1
- MIC (Vero [13]): > 400 µg/mL

Source: ChEMBL document CHEMBL1123770, “Systematic synthesis and biological evaluation of alpha- and beta-D-lyxofuranosyl nucleosides of the five naturally occurring nucleic acid bases” (1987)
